Target: LRRK2(G2019S mutation, GST-LRRK2(amino acids 970-2527)) (Homo sapiens (Human), UniProt Q5S007, G2019S)
Assay: LRRK2 Km ATP LanthaScreen Assay
Assay type: biochemical
Outline: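 TR-FRET: GST-LRRK2 970-2527 G2019S (2.5 nM solution) preincubated 30 min with compound (98 μM top, 1:2.15 dilutions), then 800 nM fluorescein-LRRKtide and 184 μM ATP solution added for 60 min at room temperature in Tris pH 8.5 buffer. Stopped with EDTA and Tb anti-phospho-LRRKtide antibody; IC50 is a mean of several tests.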

[1] = Km ATP (184 μM ATP solution), G2019S LRRK2, mean IC50

Sequence of LRRK2(G2019S mutation, GST-LRRK2(amino acids 970-2527)) (Q5S007 970-2527 G2019S): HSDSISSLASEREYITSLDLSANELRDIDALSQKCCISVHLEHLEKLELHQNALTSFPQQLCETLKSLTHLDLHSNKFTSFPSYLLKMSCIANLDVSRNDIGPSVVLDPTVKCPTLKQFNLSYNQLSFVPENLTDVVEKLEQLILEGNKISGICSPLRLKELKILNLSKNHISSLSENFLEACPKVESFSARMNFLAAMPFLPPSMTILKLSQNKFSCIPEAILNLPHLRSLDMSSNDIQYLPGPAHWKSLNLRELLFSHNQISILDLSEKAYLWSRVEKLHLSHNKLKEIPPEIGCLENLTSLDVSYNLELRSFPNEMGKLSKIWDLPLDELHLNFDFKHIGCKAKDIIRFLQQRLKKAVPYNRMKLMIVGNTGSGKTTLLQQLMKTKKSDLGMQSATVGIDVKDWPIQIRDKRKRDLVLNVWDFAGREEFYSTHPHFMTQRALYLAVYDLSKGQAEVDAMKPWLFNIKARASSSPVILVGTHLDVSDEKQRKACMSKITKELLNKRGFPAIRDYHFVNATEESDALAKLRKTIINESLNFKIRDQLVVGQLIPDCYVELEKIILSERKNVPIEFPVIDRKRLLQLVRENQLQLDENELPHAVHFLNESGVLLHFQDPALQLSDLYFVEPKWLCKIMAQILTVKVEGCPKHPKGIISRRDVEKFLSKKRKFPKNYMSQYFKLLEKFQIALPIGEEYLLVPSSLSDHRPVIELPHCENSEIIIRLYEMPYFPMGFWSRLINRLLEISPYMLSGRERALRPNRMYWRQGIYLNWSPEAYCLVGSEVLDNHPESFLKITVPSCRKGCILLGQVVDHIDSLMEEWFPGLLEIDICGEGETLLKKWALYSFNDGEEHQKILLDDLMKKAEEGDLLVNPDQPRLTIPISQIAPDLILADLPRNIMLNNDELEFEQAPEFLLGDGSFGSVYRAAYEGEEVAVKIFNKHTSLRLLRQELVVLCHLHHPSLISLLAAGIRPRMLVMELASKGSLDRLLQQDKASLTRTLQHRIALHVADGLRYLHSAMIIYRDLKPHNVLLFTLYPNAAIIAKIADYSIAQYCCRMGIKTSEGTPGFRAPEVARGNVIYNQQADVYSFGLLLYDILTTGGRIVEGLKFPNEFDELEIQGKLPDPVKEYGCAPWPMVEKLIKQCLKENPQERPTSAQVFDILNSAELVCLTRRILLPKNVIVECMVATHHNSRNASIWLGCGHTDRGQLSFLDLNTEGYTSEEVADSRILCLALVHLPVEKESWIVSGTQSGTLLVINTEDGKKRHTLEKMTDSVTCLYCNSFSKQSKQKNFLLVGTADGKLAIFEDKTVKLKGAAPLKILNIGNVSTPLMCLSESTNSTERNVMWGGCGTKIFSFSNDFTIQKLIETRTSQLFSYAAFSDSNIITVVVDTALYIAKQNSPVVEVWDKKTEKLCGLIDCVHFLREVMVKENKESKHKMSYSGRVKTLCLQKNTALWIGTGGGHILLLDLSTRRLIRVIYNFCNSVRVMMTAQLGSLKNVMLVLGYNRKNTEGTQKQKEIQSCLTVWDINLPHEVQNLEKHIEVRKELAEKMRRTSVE

SMILES | IC50 [1] | IC50 (Examples N1-N25) | IC50 (Examples O1-O23)
CO[C@@H]1CCN(c2cc(-c3n[nH]c4ccc(-c5cnn(C)c5)cc34)ncn2)C1 [Example M1] | 4 nM |  | 
Cn1cc(-c2ccc3[nH]nc(-c4cc(N5CCCC(F)(F)C5)ncn4)c3c2)cn1 [Example M2] | 2.2 nM |  | 
Cn1cc(-c2ccc3[nH]nc(-c4cc(N5CCn6ncnc6C5)ncn4)c3c2)cn1 [Example M3] | 8.5 nM |  | 
Cn1cc(-c2ccc3[nH]nc(-c4cc(N5CC[C@@H](CF)C5)ncn4)c3c2)cn1 [Example M4] | 2.3 nM |  | 
Cn1cc(-c2ccc3[nH]nc(-c4cc(N5CC[C@H](CO)C5)ncn4)c3c2)cn1 [Example M5] | 2.5 nM |  | 
CC(O)C1CCN(c2cc(-c3n[nH]c4ccc(-c5cnn(C)c5)cc34)ncn2)C1 (stereo not shown) [Example M6] | 2.3 nM |  | 
Cn1cc(-c2ccc3[nH]nc(-c4cc(N5CC[C@@H](CO)C5)ncn4)c3c2)cn1 [Example M7] | 2.9 nM |  | 
Cn1cc(-c2ccc3[nH]nc(-c4cc(N5CCCC(C)(O)C5)ncn4)c3c2)cn1 (stereo not shown) [Example M8] | 7.9 nM |  | 
C[C@@H]1CN(c2cc(-c3n[nH]c4ccc(-c5cnn(C)c5)cc34)ncn2)CCO1 [Example M9] | 1.9 nM |  | 
CO[C@H]1CCN(c2cc(-c3n[nH]c4ccc(-c5cnn(C)c5)cc34)ncn2)C1 [Example M10] | 2.6 nM |  | 
Cn1cc(-c2ccc3[nH]nc(-c4cc(N5CC[S+]([O-])CC5)ncn4)c3c2)cn1 [Example M11] | 26.8 nM |  | 
C[C@H]1CN(c2cc(-c3n[nH]c4ccc(-c5cnn(C)c5)cc34)ncn2)CCO1 [Example M12] | 2.2 nM |  | 
Cn1cc(-c2ccc3[nH]nc(-c4cc(N5C[C@H](F)[C@@H](F)C5)ncn4)c3c2)cn1 [Example M13] | 3.8 nM |  | 
Cc1nc2c(o1)CCN(c1cc(-c3n[nH]c4ccc(-c5cnn(C)c5)cc34)ncn1)C2 [Example M14] | 2.8 nM |  | 
Cn1cc(-c2ccc3[nH]nc(-c4cc(N5CCN6C(=O)OCC6C5)ncn4)c3c2)cn1 (stereo not shown) [Example M15] | 6.3 nM |  | 
Cn1cc(-c2ccc3[nH]nc(-c4cc(N5CCCC6(CCO6)C5)ncn4)c3c2)cn1 (stereo not shown) [Example M16] | 10.9 nM |  | 
CN(C)[C@H]1CN(c2cc(-c3n[nH]c4ccc(-c5cnn(C)c5)cc34)ncn2)C[C@@H]1O [Example M17] | 13.5 nM |  | 
Cn1cc(-c2ccc3[nH]nc(-c4cc(N5CCS(=O)(=O)CC5)ncn4)c3c2)cn1 [Example M18] | 22.4 nM |  | 
CN(C)[C@H]1CCN(c2cc(-c3n[nH]c4ccc(-c5cnn(C)c5)cc34)ncn2)C1 [Example M19] | 4.6 nM |  | 
Cn1cc(-c2ccc3[nH]nc(-c4cc(N5CCOC(C)(C)C5)ncn4)c3c2)cn1 [Example M20] | 8.9 nM |  | 
Cn1cc(-c2ccc3[nH]nc(-c4cc(N5CCC(F)(F)CC5)ncn4)c3c2)cn1 [Example M21] | 4.6 nM |  | 
Cn1cc(-c2ccc3[nH]nc(-c4cc(N5CCC(n6cccn6)C5)ncn4)c3c2)cn1 (stereo not shown) [Example M22] | 3.6 nM |  | 
CO[C@H]1CN(c2cc(-c3n[nH]c4ccc(-c5cnn(C)c5)cc34)ncn2)C[C@@H]1O [Example M23] | 6 nM |  | 
Cn1cc(-c2ccc3[nH]nc(-c4cc(N5CCC(F)(CO)CC5)ncn4)c3c2)cn1 [Example M24] | 2.9 nM |  | 
Cn1cc(-c2ccc3[nH]nc(-c4cc(N5CCN(CCCO)CC5)ncn4)c3c2)cn1 [Example M25] | 3 nM |  | 
Cn1cc(-c2ccc3[nH]nc(-c4cc(N5CCC(F)(F)C5)ncn4)c3c2)cn1 [Example M26] | 3.7 nM |  | 

SMILES | IC50 [1] | IC50 (Examples N1-N25) | IC50 (Examples O1-O23)
Cn1cc(-c2ccc3[nH]nc(-c4cc(N5CCC(F)(C#N)CC5)ncn4)c3c2)cn1 [Example M27] | 3 nM |  | 
Cn1cc(-c2ccc3[nH]nc(-c4cc(N5CCc6nccnc6C5)ncn4)c3c2)cn1 [Example M28] | 2.7 nM |  | 
CC(C)Oc1cc2c(-c3cc(N4CCn5ncnc5C4)ncn3)n[nH]c2cc1F [Example N1] |  | 7.1 nM | 
COCC(=O)N1CCN(c2cc(-c3n[nH]c4cc(F)c(OC(C)C)cc34)ncn2)CC1 [Example N2] |  | 5.6 nM | 
CC(C)Oc1cc2c(-c3cc(N4CCOC(C(F)(F)F)C4)ncn3)n[nH]c2cc1F (stereo not shown) [Example N3] |  | 26.6 nM | 
CC(C)Oc1cc2c(-c3cc(N4CCN(C5CCS(=O)(=O)C5)CC4)ncn3)n[nH]c2cc1F (stereo not shown) [Example N4] |  | 2.5 nM | 
CC(C)Oc1cc2c(-c3cc(N4CCn5nc(C(F)(F)F)nc5C4C)ncn3)n[nH]c2cc1F (stereo not shown) [Example N5] |  | 176 nM | 
CC(C)Oc1cc2c(-c3cc(N4CC[C@H](CO)C4)ncn3)n[nH]c2cc1F [Example N6] |  | 10.2 nM | 
CC(C)Oc1cc2c(-c3cc(N4CC[C@@H](CO)C4)ncn3)n[nH]c2cc1F [Example N7] |  | 2.9 nM | 
CC(C)Oc1cc2c(-c3cc(N4CCC(F)(F)C4)ncn3)n[nH]c2cc1F [Example N8] |  | 6.1 nM | 
CC(C)Oc1cc2c(-c3cc(N4CC[S+]([O-])CC4)ncn3)n[nH]c2cc1F [Example N9] |  | 6.1 nM | 
CC(C)Oc1cc2c(-c3cc(N4CCc5oncc5C4)ncn3)n[nH]c2cc1F [Example N10] |  | 9.8 nM | 
CC(C)Oc1cc2c(-c3cc(N4C5CCC4COC5)ncn3)n[nH]c2cc1F [Example N11] |  | 18.2 nM | 
COCC1CN(c2cc(-c3n[nH]c4cc(F)c(OC(C)C)cc34)ncn2)CCO1 (stereo not shown) [Example N12] |  | 2.9 nM | 
CC(C)Oc1cc2c(-c3cc(N4CCC(n5cccn5)C4)ncn3)n[nH]c2cc1F (stereo not shown) [Example N13] |  | 6.1 nM | 
Cc1nc2c(o1)CCN(c1cc(-c3n[nH]c4cc(F)c(OC(C)C)cc34)ncn1)C2 [Example N14] |  | 6.4 nM | 
CC(C)Oc1cc2c(-c3cc(N4CCOC(C)(C)C4)ncn3)n[nH]c2cc1F [Example N15] |  | 6.2 nM | 
CC(C)Oc1cc2c(-c3cc(N4CCC(F)(C#N)CC4)ncn3)n[nH]c2cc1F [Example N16] |  | 17.7 nM | 
CO[C@H]1CN(c2cc(-c3n[nH]c4cc(F)c(OC(C)C)cc34)ncn2)C[C@@H]1O [Example N17] |  | 7.7 nM | 
CC(C)Oc1cc2c(-c3cc(N4C[C@H](O)[C@@H](N(C)C)C4)ncn3)n[nH]c2cc1F [Example N18] |  | 7.9 nM | 
CC(C)Oc1cc2c(-c3cc(N4CCS(=O)(=O)CC4)ncn3)n[nH]c2cc1F [Example N19] |  | 24 nM | 
CC(C)Oc1cc2c(-c3cc(N4CCC(F)(CO)CC4)ncn3)n[nH]c2cc1F [Example N20] |  | 2.3 nM | 
CCOC(=O)N1CCN(c2cc(-c3n[nH]c4cc(F)c(OC(C)C)cc34)ncn2)CC1 [Example N21] |  | 6.1 nM | 
CC(C)Oc1cc2c(-c3cc(N4CC[C@H](N(C)C)C4)ncn3)n[nH]c2cc1F [Example N22] |  | 7 nM | 
CC(C)Oc1cc2c(-c3cc(N4CCN(CCCO)CC4)ncn3)n[nH]c2cc1F [Example N23] |  | 3.1 nM | 
CC(C)Oc1cc2c(-c3cc(N4[C@H](C)COC[C@H]4C)ncn3)n[nH]c2cc1F [Example N24] |  | 62.1 nM | 

SMILES | IC50 [1] | IC50 (Examples N1-N25) | IC50 (Examples O1-O23)
CC(C)Oc1cc2c(-c3cc(N4[C@H](C)COC[C@@H]4C)ncn3)n[nH]c2cc1F [Example N25] |  | 5.4 nM | 
COC[C@H](C)Oc1ccc2[nH]nc(-c3cc(N4CCn5ncnc5C4)ncn3)c2c1 [Example O1] |  |  | 20.2 nM
COC[C@H](C)Oc1ccc2[nH]nc(-c3cc(N4CCOC[C@H]4C)ncn3)c2c1 [Example O2] |  |  | 20.2 nM
COC[C@H](C)Oc1ccc2[nH]nc(-c3cc(N4CC[C@@H](CF)C4)ncn3)c2c1 [Example O3] |  |  | 2.7 nM
COC[C@H](C)Oc1ccc2[nH]nc(-c3cc(N4CCCC(F)(F)C4)ncn3)c2c1 [Example O4] |  |  | 2.8 nM
COC[C@H](C)Oc1ccc2[nH]nc(-c3cc(N4CCOC(C(F)(F)F)C4)ncn3)c2c1 (stereo partly shown) [Example O5] |  |  | 8.6 nM
COC[C@H](C)Oc1ccc2[nH]nc(-c3cc(N4CC[C@H](CO)C4)ncn3)c2c1 [Example O6] |  |  | 6 nM
COC[C@H](C)Oc1ccc2[nH]nc(-c3cc(N4CC[C@@H](CO)C4)ncn3)c2c1 [Example O7] |  |  | 3.6 nM
COC[C@H](C)Oc1ccc2[nH]nc(-c3cc(N4CCC(F)(F)C4)ncn3)c2c1 [Example O8] |  |  | 12.6 nM
COC[C@H](C)Oc1ccc2[nH]nc(-c3cc(N4CCN(C)C(=O)C4)ncn3)c2c1 [Example O9] |  |  | 10.9 nM
COC[C@H](C)Oc1ccc2[nH]nc(-c3cc(N4CC(OC)C4)ncn3)c2c1 [Example O10] |  |  | 5.6 nM
COC[C@H](C)Oc1ccc2[nH]nc(-c3cc(N4CCN(C5CC5)CC4)ncn3)c2c1 [Example O11] |  |  | 4.1 nM
COC[C@H](C)Oc1ccc2[nH]nc(-c3cc(N4C[C@H](F)[C@@H](F)C4)ncn3)c2c1 [Example O12] |  |  | 7.9 nM
COCC1CN(c2cc(-c3n[nH]c4ccc(O[C@@H](C)COC)cc34)ncn2)CCO1 (stereo partly shown) [Example O13] |  |  | 3.6 nM
COC[C@H](C)Oc1ccc2[nH]nc(-c3cc(N4CC(F)(F)C4)ncn3)c2c1 [Example O14] |  |  | 7.6 nM
COC[C@H](C)Oc1ccc2[nH]nc(-c3cc(N4[C@H](C)COC[C@@H]4C)ncn3)c2c1 [Example O15] |  |  | 7.4 nM
COC[C@H](C)Oc1ccc2[nH]nc(-c3cc(N4CCOC[C@@H]4C)ncn3)c2c1 [Example O16] |  |  | 6 nM
COC[C@H](C)Oc1ccc2[nH]nc(-c3cc(N4CCc5oc(C)nc5C4)ncn3)c2c1 [Example O17] |  |  | 8.4 nM
COC[C@H](C)Oc1ccc2[nH]nc(-c3cc(N4CCOC(C)(C)C4)ncn3)c2c1 [Example O18] |  |  | 5.3 nM
COC[C@H](C)Oc1ccc2[nH]nc(-c3cc(N4CCC(F)(F)CC4)ncn3)c2c1 [Example O19] |  |  | 8 nM
COC[C@H](C)Oc1ccc2[nH]nc(-c3cc(N4CCN5C(=O)OCC5C4)ncn3)c2c1 (stereo partly shown) [Example O20] |  |  | 8.8 nM
COC[C@H](C)Oc1ccc2[nH]nc(-c3cc(N4C[C@H](OC)[C@@H](O)C4)ncn3)c2c1 [Example O21] |  |  | 19.8 nM
COC[C@H](C)Oc1ccc2[nH]nc(-c3cc(N4C[C@H](O)[C@@H](N(C)C)C4)ncn3)c2c1 [Example O22] |  |  | 6.6 nM
COC[C@H](C)Oc1ccc2[nH]nc(-c3cc(N4CCC5(CC4)CNC(=O)CO5)ncn3)c2c1 [Example O23] |  |  | 3.5 nM
